Measured values from ChEMBL document CHEMBL3797164, “Transfer of SAR information from hypotensive indazole to indole derivatives acting at α-adrenergic receptors: In vitro and in vivo studies” (Eur J Med Chem, 2016).

Key:
Format in all cases: toxicity, organism-based
Rattus norvegicus [1] = assay: Neurotoxicity in Sprague-Dawley rat assessed as induction of forpaw grasping reflex at 1000 to 1500 ug/kg, ip after 15 to 30 mins by LORR test; conditions: in vivo
Rattus norvegicus [2] = assay: Neurotoxicity in Sprague-Dawley rat assessed as induction of resistance to lateral push at 1000 to 1500 ug/kg, ip after 15 to 30 mins by LORR test; conditions: in vivo
Rattus norvegicus [3] = assay: Neurotoxicity in Sprague-Dawley rat assessed as induction of sedative-hypnotic state at 10 to 500 ug/kg, ip after 30 mins by LORR test; conditions: in vivo, 0.5 h

Measured: Activity

Cl.Clc1cccc2ccn(CC3=NCCN3)c12
Non-toxic: all assays above
